This note sets out measurements from ChEMBL document CHEMBL1201862, “PubChem BioAssay data set” (2004).

One may read the GI50 as the concentration that inhibits growth by half.

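Results reflect a 48-hour exposure of cells in 96-well plates to compound at five concentrations. Here, GI50 denotes the concentration required for 50% inhibition of growth.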 Active and inactive are the calls of the source. Cut-off read from the data, not from the text of the source: active = GI50 up to about 1.1 µM and inactive = higher.

Among the test systems are EKVX; SK-MEL-28; HOP-62; OVCAR-4; UO-31; PC-3; SNB-75; MDA-N; M14; Hs-578T; SF-539; COLO 205; Malme-3M; MOLT-4; OVCAR-3; MDA-MB-231; OVCAR-8; IGROV-1; SN12C; SW-620.
Holding throughout (assay): DTP human tumour cell line panel, 48 h

Turning to `COc1cc(C(c2cc3c(cc2O)OCO3)N2CCCCC2)cc(OC)c1OC` (stereo not given), the GI50 in the assay with EKVX is 18.7 µM (inactive); in the assay with SK-MEL-28, 16.7 µM (inactive); in the assay with HOP-62, 30 µM (inactive); with OVCAR-4 it was 11.9 µM (inactive); with UO-31 it was 14.8 µM (inactive); in the assay on PC-3, 15.8 µM (inactive). Also, the GI50 was 16.8 µM (inactive) with SNB-75; 7.28 µM (inactive) with MDA-N; 6.28 µM (inactive) with M14; 14 µM (inactive) in the assay with Hs-578T; 17.9 µM (inactive) with SF-539; 13.4 µM (inactive) in the assay with COLO 205. Also, the GI50 in the assay on Malme-3M was 12.8 µM (inactive); in the assay on MOLT-4 it was 2.15 µM (inactive); with OVCAR-3, 13.8 µM (inactive); in the assay with MDA-MB-231, 15 µM (inactive); in the assay on OVCAR-8, 13.2 µM (inactive); in the assay on IGROV-1 it was 17.7 µM (inactive). Also, the values for the GI50 with SN12C and with SW-620 were 11.5 µM (inactive) and 4.57 µM (inactive), respectively.
For `O=C(CC(c1ccccc1)N1CCCCC1)c1ccccc1` (stereo not given), the GI50 in the assay on EKVX was 17.7 µM (inactive); in the assay on SK-MEL-28 it was 17.8 µM (inactive); in the assay with HOP-62, 17.7 µM (inactive); in the assay with OVCAR-4, 18.4 µM (inactive); with UO-31, 19.2 µM (inactive); with PC-3, 15 µM (inactive). The GI50 is 16.6 µM (inactive) in the assay on SNB-75; 12.2 µM (inactive) in the assay on MDA-N; 21.5 µM (inactive) in the assay on M14; 24.8 µM (inactive) with Hs-578T; 19 µM (inactive) with SF-539; 20.1 µM (inactive) in the assay with COLO 205. Besides, the GI50 was 16 µM (inactive) in the assay with Malme-3M; 1.96 µM (inactive) in the assay with MOLT-4; 11.2 µM (inactive) in the assay with OVCAR-3; 18.9 µM (inactive) with MDA-MB-231; 15.5 µM (inactive) with OVCAR-8; 14 µM (inactive) in the assay with IGROV-1. In addition, the results for the GI50 with SN12C and in the assay with SW-620 were 15.6 µM (inactive) and 4.06 µM (inactive), respectively.
`Cc1ccc(C(=O)CC(O)(C(F)(F)F)C(F)(F)F)cc1[N+](=O)[O-]`: the GI50 with EKVX was 17.9 µM (inactive); in the assay with SK-MEL-28, 8.15 µM (inactive); in the assay with HOP-62 it was 15.2 µM (inactive); in the assay on OVCAR-4, 15.8 µM (inactive); in the assay with UO-31 it was 5.81 µM (inactive); in the assay with PC-3, 11.3 µM (inactive). Besides, the GI50 in the assay on SNB-75 was 18.3 µM (inactive); in the assay with MDA-N it was 10.2 µM (inactive); in the assay on M14 it was 6.59 µM (inactive); with Hs-578T it was 9.46 µM (inactive); in the assay on SF-539, 17 µM (inactive); with COLO 205 it was 16.8 µM (inactive). Moreover, the GI50 in the assay on Malme-3M is 16.3 µM (inactive); with MOLT-4, 16.7 µM (inactive); in the assay on OVCAR-3, 2.2 µM (inactive); with MDA-MB-231, 7.55 µM (inactive); in the assay with OVCAR-8 it was 10.2 µM (inactive); in the assay with IGROV-1, 5.05 µM (inactive). In addition, the GI50 in the assay on SN12C is 10 µM (inactive); with SW-620, 16.8 µM (inactive).
In the case of `COc1cc(-c2coc3c(OC)c(OC4OC(COC5OC(C)C(O)C(O)C5O)C(O)C(O)C4O)c(OC)c(O)c3c2=O)cc(C)c1O` (stereo not given), the GI50 in the assay on EKVX was 17.2 µM (inactive); in the assay on SK-MEL-28, 15.1 µM (inactive); in the assay on HOP-62, 22.1 µM (inactive); in the assay on OVCAR-4 it was 18.9 µM (inactive); in the assay with UO-31 it was 16.6 µM (inactive); in the assay with PC-3, 24.8 µM (inactive). The GI50 with SNB-75 was 16 µM (inactive); in the assay with MDA-N, 0.873 µM (active); with M14, 15.5 µM (inactive); in the assay on Hs-578T it was 20.7 µM (inactive); with SF-539 it was 21.3 µM (inactive); in the assay with COLO 205, 19.6 µM (inactive). For the same compound, the GI50 with Malme-3M was 18.3 µM (inactive); in the assay with MOLT-4 it was 3.73 µM (inactive); in the assay on OVCAR-3, 13.7 µM (inactive); in the assay on MDA-MB-231, 32.5 µM (inactive); with OVCAR-8 it was 23.6 µM (inactive); with IGROV-1, 17 µM (inactive). The results for the GI50 with SN12C and in the assay with SW-620 were 1.68 µM (inactive) and 12.7 µM (inactive), respectively.
